Source: ChEMBL document CHEMBL1201862, “PubChem BioAssay data set” (2004)
Activity calls are given as the source filed them.

Experiments:
[1] = molecular target: T1, Corticotropin-releasing factor receptor 2/Corticotropin-releasing factor-binding protein (Homo sapiens, UniProt P24387+Q13324); experiment: activators of CRF receptor 2 with binding protein – uHTS hits, confirmation (AID 602473); type: functional; conditions: read-out: EC50_Mean
T1 sequence (Q13324 whole entry): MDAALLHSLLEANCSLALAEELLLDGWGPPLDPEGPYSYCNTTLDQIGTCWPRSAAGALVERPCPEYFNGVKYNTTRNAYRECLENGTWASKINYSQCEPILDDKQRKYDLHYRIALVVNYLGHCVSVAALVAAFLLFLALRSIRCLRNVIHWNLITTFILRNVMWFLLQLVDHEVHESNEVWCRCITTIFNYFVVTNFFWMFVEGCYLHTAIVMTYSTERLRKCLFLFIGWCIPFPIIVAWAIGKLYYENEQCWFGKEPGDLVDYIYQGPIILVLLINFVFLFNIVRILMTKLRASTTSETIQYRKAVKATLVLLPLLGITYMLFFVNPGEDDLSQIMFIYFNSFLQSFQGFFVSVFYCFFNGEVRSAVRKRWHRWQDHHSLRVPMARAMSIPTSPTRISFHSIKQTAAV
T1 sequence (P24387 whole entry): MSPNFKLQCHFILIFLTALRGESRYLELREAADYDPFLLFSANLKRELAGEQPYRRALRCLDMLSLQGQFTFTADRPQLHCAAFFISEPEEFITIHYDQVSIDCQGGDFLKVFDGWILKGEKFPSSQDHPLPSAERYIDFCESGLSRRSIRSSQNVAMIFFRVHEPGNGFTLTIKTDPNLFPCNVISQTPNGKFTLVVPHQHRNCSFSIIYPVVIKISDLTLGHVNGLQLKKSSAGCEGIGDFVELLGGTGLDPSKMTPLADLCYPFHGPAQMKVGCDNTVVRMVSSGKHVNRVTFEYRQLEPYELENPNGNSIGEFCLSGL

[2] = molecular target: T1, Corticotropin-releasing factor receptor 2/Corticotropin-releasing factor-binding protein; experiment: Dose Response confirmation of uHTS hits for small molecule antagonists of the CRF-binding protein and CRF-R2 receptor complex.; type: functional; conditions: read-out: IC50_Mean
[3] = molecular target: Cytochrome P450 3A4 (Homo sapiens, UniProt P08684);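 note: CYP3A4 tested as one member of a cytochrome P450 panel screen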
[4] = molecular target: Cytochrome P450 2C19 (Homo sapiens, UniProt P33261); experiment: Cytochrome panel assay with activity outcomes. Panel member name: p450-cyp2c19 Compounds with AC50 equal or less than 10 uM are considered active; type: functional
[5] = HEp-2 cell cytotoxicity, dose response, cytotoxicity control for RSV inhibitor project, HTS (AID 2410); type: functional; conditions: human respiratory syncytial virus
[6] = molecular target: FAD-linked sulfhydryl oxidase ALR (Homo sapiens, UniProt P55789); experiment: inhibitors of human ALR sulfhydryl oxidase, dose response, biochemical, H2O2 detection, luminescence, cherry-pick (AID 493248)
[7] = NIH-3T3 fibroblast cytotoxicity, dose response, cytotoxicity control, cell-based, fluorescence, Alamar Blue, secondary assay (AID 2327); type: functional;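 note: NIH-3T3 mouse fibroblasts cultured with fluconazole at 8 µg/mL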
[8] = Luminescence Cell-Based Dose Confirmation HTS to Identify Inhibitors of Platelet Dense Granule Release. [Related pubchem assays: 1663 (Primary HTS), 1678 (Summary of Project)]; type: functional
[9] = molecular target: Luciferin 4-monooxygenase (Photinus pyralis, UniProt P08659); experiment: firefly luciferase enzyme inhibitors, dose response, biochemical, luminescence (AID 1891)
[10] = C. albicans growth with fluconazole, confirmation, fluorescence, retest (AID 2467); type: functional, cell-based
[11] = molecular target: Cytochrome P450 2C9 (Homo sapiens, UniProt P11712)
[12] = molecular target: Cytochrome P450 2D6 (Homo sapiens, UniProt P10635);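 note: CYP2D6 member of a cytochrome P450 panel assay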
[13] = molecular target: T2, Rac GTPase-activating protein 1 (Homo sapiens, UniProt Q9H0H5); experiment: MgcRacGAP GTPase-activating activity inhibitors, confirmation, biochemical, ADP Hunter fluorescence, primary and confirmatory (AID 624330); type: functional
T2 sequence (Q9H0H5 whole entry): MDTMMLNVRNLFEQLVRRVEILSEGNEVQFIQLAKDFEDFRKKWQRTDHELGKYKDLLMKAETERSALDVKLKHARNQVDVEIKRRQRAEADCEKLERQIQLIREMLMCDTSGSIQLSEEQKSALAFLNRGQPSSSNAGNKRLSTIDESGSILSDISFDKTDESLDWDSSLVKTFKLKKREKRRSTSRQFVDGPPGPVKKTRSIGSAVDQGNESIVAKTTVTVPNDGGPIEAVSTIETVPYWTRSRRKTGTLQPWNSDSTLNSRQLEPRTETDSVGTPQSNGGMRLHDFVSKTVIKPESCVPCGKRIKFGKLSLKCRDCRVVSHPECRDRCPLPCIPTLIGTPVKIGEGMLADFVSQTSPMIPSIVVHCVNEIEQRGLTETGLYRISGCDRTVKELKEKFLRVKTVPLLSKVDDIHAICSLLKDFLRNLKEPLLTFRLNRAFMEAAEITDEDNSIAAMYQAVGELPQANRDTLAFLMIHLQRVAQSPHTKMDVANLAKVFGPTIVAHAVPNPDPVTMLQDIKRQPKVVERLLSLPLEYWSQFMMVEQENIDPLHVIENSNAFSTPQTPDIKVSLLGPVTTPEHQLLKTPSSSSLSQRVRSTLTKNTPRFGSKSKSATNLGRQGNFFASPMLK

[14] = Shn3 3'UTR reporter inhibitors, dose response, cell-based, Clone20 osteoblasts, firefly luciferase, cherry-picked (AID 624132); type: functional;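 note: firefly luciferase luminescence from reporter carrying the Shn3 3'UTR in osteoblasts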
[15] = control 3'UTR Renilla luciferase suppression, dose response, counter-screen for Shn3 inhibitor project, cell-based, Clone20-Shn3RL, cherry-picked (AID 624133); type: functional
[16] = molecular target: Paired box protein Pax-8 (Homo sapiens, UniProt Q06710); experiment: inhibitors of PAX8-driven TPO luciferase reporter, dose response, RMG-I cells, cherry-pick (AID 687027); type: functional, cell-based;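 note: luciferase reporter driven by Pax8 target thyroperoxidase promoter measured by SteadyGlo luminescence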
[17] = inhibitors of HIV Env-driven cell fusion, dose response, cherry-pick (AID 652057); type: functional, cell-based
[18] = molecular target: T3, Cytochrome P450 1A2 (Homo sapiens, UniProt P05177);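 note: PubChem cytochrome P450 panel assay, CYP1A2 panel member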
T3 sequence (P05177 whole entry): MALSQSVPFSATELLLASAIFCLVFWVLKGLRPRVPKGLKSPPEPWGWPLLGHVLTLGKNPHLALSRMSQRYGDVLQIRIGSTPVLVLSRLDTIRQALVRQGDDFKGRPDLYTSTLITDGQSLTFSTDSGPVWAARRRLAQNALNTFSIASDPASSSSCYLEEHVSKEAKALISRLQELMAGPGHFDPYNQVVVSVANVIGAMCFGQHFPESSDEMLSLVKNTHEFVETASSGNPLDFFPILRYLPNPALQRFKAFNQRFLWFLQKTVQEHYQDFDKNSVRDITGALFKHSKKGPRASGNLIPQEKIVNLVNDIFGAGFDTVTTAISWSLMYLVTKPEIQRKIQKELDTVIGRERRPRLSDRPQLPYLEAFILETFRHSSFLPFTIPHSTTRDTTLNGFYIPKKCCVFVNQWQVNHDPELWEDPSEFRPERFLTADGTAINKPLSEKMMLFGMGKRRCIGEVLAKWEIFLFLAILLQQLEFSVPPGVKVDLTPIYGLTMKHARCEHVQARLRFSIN

Chain of Cytochrome P450 2C19 (P33261 whole entry): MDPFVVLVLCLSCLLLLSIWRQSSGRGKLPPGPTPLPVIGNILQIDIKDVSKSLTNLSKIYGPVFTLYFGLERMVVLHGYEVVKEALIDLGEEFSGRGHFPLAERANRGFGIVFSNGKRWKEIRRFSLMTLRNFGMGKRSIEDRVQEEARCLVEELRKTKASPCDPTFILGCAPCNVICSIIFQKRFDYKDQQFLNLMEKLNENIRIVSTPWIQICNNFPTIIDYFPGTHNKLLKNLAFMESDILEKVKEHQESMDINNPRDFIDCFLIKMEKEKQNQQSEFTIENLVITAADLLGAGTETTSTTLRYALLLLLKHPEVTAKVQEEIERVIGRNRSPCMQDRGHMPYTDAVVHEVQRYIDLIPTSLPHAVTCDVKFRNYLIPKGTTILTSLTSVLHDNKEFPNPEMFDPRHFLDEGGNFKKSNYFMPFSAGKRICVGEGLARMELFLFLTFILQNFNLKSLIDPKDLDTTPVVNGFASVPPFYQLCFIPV
Chain of Cytochrome P450 2C9 (P11712 whole entry): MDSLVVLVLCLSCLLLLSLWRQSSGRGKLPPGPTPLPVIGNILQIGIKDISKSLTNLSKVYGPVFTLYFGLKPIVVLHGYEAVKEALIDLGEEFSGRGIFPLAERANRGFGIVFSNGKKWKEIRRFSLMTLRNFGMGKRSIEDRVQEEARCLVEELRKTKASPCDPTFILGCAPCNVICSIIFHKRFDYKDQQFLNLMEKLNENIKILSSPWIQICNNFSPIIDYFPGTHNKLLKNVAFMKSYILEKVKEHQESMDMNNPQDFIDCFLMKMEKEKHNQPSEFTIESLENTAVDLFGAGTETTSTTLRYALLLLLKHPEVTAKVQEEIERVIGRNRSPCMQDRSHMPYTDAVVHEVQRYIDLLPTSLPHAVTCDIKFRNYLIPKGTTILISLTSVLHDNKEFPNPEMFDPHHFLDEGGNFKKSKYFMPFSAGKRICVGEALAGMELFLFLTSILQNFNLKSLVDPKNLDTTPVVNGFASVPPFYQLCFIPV
Chain of Cytochrome P450 2D6 (P10635 whole entry): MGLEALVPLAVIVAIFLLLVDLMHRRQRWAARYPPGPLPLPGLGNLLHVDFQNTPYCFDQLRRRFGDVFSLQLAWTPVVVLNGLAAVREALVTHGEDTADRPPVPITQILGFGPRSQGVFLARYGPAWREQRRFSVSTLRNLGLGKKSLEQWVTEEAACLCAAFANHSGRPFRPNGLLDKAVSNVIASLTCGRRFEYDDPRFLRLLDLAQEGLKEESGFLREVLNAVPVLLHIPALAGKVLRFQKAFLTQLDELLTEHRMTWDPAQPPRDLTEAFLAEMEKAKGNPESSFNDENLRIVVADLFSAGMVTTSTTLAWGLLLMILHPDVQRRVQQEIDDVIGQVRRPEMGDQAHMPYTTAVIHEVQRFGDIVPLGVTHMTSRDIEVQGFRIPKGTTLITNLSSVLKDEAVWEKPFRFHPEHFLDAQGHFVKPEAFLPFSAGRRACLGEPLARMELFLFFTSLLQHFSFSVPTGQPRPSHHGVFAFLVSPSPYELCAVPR
Chain of FAD-linked sulfhydryl oxidase ALR (P55789 whole entry): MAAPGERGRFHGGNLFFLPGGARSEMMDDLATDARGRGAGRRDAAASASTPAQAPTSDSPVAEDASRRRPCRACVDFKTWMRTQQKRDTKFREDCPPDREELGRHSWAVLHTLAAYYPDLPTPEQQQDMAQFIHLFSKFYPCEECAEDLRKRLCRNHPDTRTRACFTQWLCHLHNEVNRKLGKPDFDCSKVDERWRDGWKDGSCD
Chain of Cytochrome P450 3A4 (P08684 whole entry): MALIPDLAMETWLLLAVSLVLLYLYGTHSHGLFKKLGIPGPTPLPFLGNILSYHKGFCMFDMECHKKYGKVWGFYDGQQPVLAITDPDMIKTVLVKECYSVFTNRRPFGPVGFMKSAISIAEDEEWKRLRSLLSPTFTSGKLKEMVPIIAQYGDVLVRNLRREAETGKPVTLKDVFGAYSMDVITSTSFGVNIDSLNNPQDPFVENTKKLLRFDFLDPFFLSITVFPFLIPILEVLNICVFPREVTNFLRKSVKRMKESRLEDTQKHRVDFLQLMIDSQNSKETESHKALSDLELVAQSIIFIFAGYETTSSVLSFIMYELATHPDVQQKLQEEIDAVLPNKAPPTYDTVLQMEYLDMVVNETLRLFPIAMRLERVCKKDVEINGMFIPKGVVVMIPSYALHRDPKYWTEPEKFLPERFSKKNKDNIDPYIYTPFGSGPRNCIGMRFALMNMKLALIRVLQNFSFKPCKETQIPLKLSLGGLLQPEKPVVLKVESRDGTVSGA
Chain of Luciferin 4-monooxygenase (P08659 whole entry): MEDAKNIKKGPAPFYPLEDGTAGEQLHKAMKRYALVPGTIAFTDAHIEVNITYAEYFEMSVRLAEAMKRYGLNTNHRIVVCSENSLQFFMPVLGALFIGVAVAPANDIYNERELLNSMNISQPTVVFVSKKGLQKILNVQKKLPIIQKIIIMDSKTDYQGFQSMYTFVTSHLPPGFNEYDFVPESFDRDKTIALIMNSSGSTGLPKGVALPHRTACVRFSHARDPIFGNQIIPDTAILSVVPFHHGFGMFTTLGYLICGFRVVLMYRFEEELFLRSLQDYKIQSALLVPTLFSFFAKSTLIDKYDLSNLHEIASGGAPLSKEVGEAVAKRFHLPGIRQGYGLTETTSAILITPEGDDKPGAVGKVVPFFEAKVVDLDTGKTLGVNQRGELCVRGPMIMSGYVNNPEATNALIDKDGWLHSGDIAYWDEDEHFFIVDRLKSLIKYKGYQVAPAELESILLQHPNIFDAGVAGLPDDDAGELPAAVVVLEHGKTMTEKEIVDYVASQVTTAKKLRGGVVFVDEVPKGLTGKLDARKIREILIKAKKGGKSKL
Chain of Paired box protein Pax-8 (Q06710 whole entry, the tested form may be a part): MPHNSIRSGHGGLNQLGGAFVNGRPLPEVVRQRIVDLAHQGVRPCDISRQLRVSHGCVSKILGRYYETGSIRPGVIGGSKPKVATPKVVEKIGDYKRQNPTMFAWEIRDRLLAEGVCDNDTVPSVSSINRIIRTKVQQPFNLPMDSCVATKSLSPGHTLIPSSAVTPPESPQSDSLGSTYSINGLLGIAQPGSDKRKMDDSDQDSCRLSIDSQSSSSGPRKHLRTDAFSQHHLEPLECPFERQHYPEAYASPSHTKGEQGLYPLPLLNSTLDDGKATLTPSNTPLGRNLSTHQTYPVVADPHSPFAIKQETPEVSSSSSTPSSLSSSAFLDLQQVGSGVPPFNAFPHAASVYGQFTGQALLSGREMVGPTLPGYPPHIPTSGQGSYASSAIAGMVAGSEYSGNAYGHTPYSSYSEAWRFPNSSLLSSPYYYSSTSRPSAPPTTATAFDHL

COc1ccc(C(=O)Nc2ccc(C3CC3(Cl)Cl)cc2)cc1 (stereo unspecified)
EC50 [1]: > 53 µM (inactive)
IC50 [2]: > 47.1 µM (inactive)

COc1ccc(-n2c(=O)cnc3cnc(N(C)C)nc32)cc1
AC50 [3]: 39.8 µM (inconclusive)
AC50 ([4]; read-out: AC50): 39.8 µM (inconclusive)

CCC(CO)Nc1nc2ccc(Cl)cc2c2ccccc12 (stereo unspecified)
CC50 [5]: 14.5 µM (active)

COc1cccc(N2CCN(CC(=O)NCc3cccs3)CC2)c1
AC50 [6]: 4.1 µM (active)

COc1cccc(NC(=O)C2CCCN(S(=O)(=O)c3ccc(-n4cnnn4)cc3)C2)c1 (stereo unspecified)
EC50 [1]: > 53 µM (inactive)
IC50 [2]: > 47.1 µM (inactive)

COc1cc(CNc2ncc(-c3ccc(Cl)cc3)n2C)cc(OC)c1OC
AC50 [6]: 4.59 µM (active)

CCCOc1cccc(-c2cc(C(=O)NN=C(S)NCC)c3ccccc3n2)c1
EC50 [7]: > 160 µM (inactive)
EC50 [8]: > 112 µM (not active)
EC50 [9]: 1.41 µM (active)
EC50 [10]: > 38 µM (not active)

O=C(COC(=O)C1CCN(S(=O)(=O)c2ccc3c(c2)OCCO3)CC1)NC1CCS(=O)(=O)C1 (stereo unspecified)
EC50 [1]: > 53 µM (inactive)
IC50 [2]: > 47.1 µM (inactive)

Cc1ccccc1C(=O)c1c[nH]c(C(=O)NCc2cccs2)c1
AC50 [3]: 22.4 µM (inconclusive)
AC50 ([4]; read-out: AC50): 25.1 µM (inconclusive)
AC50 [11]: 3.55 µM (inconclusive)
AC50 [12]: 14.1 µM (inconclusive)

CC/C(=N\NC(N)=O)c1ccc(OC(F)F)cc1
CC50 [5]: 27.5 µM (active)

CC(=O)Nc1ccc(OCC(O)CN2C(C)(C)CC(O)CC2(C)C)cc1 (stereo unspecified)
EC50 [1]: > 53 µM (inactive)
IC50 [2]: > 47.1 µM (inactive)

COc1ccccc1C(=O)Nc1ccc(S(=O)(=O)N2CCCCC2c2cccnc2)cc1 (stereo unspecified)
CC50 [5]: 31.9 µM (active)

COc1ccc(NCc2nc3ccccc3n2C)cc1
AC50 [6]: 3.46 µM (active)

CCOC(=O)c1nnn(-c2nonc2N)c1CN(C)C1CCCCC1
EC50 [1]: > 53 µM (inactive)
IC50 [2]: > 47.1 µM (inactive)

Cc1ccc(NC2CCCN(C(=O)c3snnc3C)C2)cc1C (stereo unspecified)
AC50 [6]: 1.64 µM (active)

Cc1ccc(NC2CCCN(C(=O)C3CCCC3)C2)cc1C (stereo unspecified)
AC50 [6]: 4.78 µM (active)

Cc1nc2cnc(N3CCOCC3)nc2n(Cc2cccs2)c1=O
AC50 [3]: 7.94 µM (inconclusive)
AC50 [11]: 15.8 µM (inconclusive)
AC50 [12]: 39.8 µM (inconclusive)

COc1ccc(CNc2ncnc3ccc(-c4ccc5c(c4)OCO5)cc23)c(OC)c1
AC50 [3]: 0.794 µM (active)
AC50 [12]: 2.51 µM (active)

CC(C)NC(=O)COC(=O)c1cccc(NS(=O)(=O)/C=C/c2ccccc2)c1
EC50 [7]: > 160 µM (inactive)

O=C(CSc1nc(-c2ccco2)cc(C(F)(F)F)n1)NCCCN1CCOCC1
EC50 [1]: > 53 µM (inactive)
IC50 [2]: > 47.1 µM (inactive)

COc1cc(C(=O)N2CCC(NC(=O)C(Cc3ccc(C(C)C)cc3)NC(C)=O)CC2)cc(OC)c1OC (stereo unspecified)
AC50 [3]: 17.8 µM (inconclusive)
AC50 ([4]; read-out: AC50): 22.4 µM (inconclusive)

Nc1ccc(C(=O)c2cccs2)cc1[N+](=O)[O-]
CC50 [5]: 36.8 µM (active)

COc1ccc2oc(C(=O)NCCC(C)C)c(C)c2c1
EC50 [1]: > 53 µM (inactive)
IC50 [2]: > 47.1 µM (inactive)

CC(C)(C)N1C(=O)c2ccc(C(=O)Nc3ccc(O)cc3)cc2C1=O
AC50 [6]: 3.13 µM (active)
IC50 [13]: 26.8 µM (active)

CCc1c(C)nc2cc(-c3ccc(OC)c(OC)c3)nn2c1NCC1CC1
CC50 [5]: 13.7 µM (active)
AC50 [14]: 5.11 µM (active)
AC50 [15]: 5.44 µM (active)

CN(Cc1ccccc1)S(=O)(=O)c1ccc(C(=O)Nc2nnc(C3CC3)o2)cc1
EC50 [7]: > 160 µM (inactive)
EC50 [10]: 1.76 µM (active)

Cc1nc(Nc2ccccc2Cl)sc1C(=O)Nc1ccccc1
EC50 [7]: 28.6 µM (active)
EC50 [10]: > 38 µM (not active)

O=C(C[C@@H]1C[C@H]2c3cc(NC(=O)Nc4ccc(C(F)(F)F)cc4)ccc3O[C@H]2[C@H](CO)O1)NCCc1ccccc1
AC50 [16]: 15.9 µM (active)

CCOc1ccc(NC(=O)CSc2ccc3nnc(-c4cccnc4)n3n2)cc1
EC50 [1]: > 53 µM (inactive)
IC50 [2]: > 47.1 µM (inactive)

Cc1cc(Nc2nc3ccccc3nc2O)n(-c2ccccc2)n1
CC50 [5]: 16.6 µM (active)

Cc1ccc2nc(N=C(N)NC(=O)N3c4ccccc4Sc4ccccc43)nc(C)c2c1
CC50 [5]: 12.8 µM (active)

C=CCOc1ccc(CN(C)CC(O)COc2cccc3ccccc23)cc1 (stereo unspecified)
CC50 [5]: 26.1 µM (active)

C[C@H]1CN([C@@H](C)CO)S(=O)(=O)c2ccc(-c3cccc(F)c3)cc2O[C@H]1CN(C)S(=O)(=O)c1ccccc1
AC50 [17]: 25.7 µM (active)

COc1ccc(NC(=O)CN(C)C(=O)c2cccc(S(=O)(=O)N3CCN(c4ccc(F)cc4)CC3)c2)cc1
EC50 [1]: > 53 µM (inactive)
IC50 [2]: > 47.1 µM (inactive)

CCOC(=O)c1[nH]c(C)c(C(=O)N2CCN(c3cccc(Cl)c3)CC2)c1C
CC50 [5]: 20.9 µM (active)

CC(C)N1CCN(Cc2nc(-c3ccccc3)cs2)CC1CCO (stereo unspecified)
EC50 [1]: > 53 µM (inactive)
IC50 [2]: > 47.1 µM (inactive)

Cc1ccc(NC(=O)CCc2c(C)nc3ncnn3c2C)nc1
AC50 [3]: 15.8 µM (inconclusive)
AC50 [4]: inconclusive

O=C(CSc1nncn1-c1ccccc1)Nc1ccc(N2CCOCC2)cc1
AC50 [3]: 3.16 µM (inconclusive)
AC50 [11]: 12.6 µM (inconclusive)
AC50 [18]: 39.8 µM (inconclusive)

CCCn1c(C(C)Nc2nc(-c3ccc(Cl)c([N+](=O)[O-])c3)cs2)nc2ccccc21 (stereo unspecified)
CC50 [5]: 29.7 µM (active)

Cc1ccccc1NC(=O)Cc1nc(CCl)cs1
AC50 [6]: 10.8 µM (active)

O=C(c1ccccc1)c1nc2ccccc2nc1O
EC50 [1]: > 53 µM (inactive)
IC50 [2]: > 47.1 µM (inactive)
